Data from article PMC7590976, “Detection of Active Granzyme A in NK92 Cells with Fluorescent Activity-Based Probe” (Journal of Medicinal Chemistry, 2020).
Several values for one entry are separate records, joined by “and”; a condition that tells them apart may be missing. Equal entries are not always repeated. Entries after “also recorded” stand apart in the source; their conditions may differ. Non-standard residues stand in square brackets, D forms with d. *: point of attachment. Oic = O=C(O)[C@@H]1C[C@@H]2CCCC[C@@H]2N1; ACC = NC(=O)Cc1cc(=O)oc2cc(N*)ccc12; Tic = O=C(O)[C@@H]1Cc2ccccc2CN1

Key:
GrA [1] = biological target: T1, GrA (Homo sapiens, UniProt P12544); experiment: Steady-state Michaelis–Menten kinetics of fluorogenic ACC substrates with GrA; assay type: biochemical
T1 construct: made in house; host or cells: Pichia pastoris
T1 sequence (P12544 29-262): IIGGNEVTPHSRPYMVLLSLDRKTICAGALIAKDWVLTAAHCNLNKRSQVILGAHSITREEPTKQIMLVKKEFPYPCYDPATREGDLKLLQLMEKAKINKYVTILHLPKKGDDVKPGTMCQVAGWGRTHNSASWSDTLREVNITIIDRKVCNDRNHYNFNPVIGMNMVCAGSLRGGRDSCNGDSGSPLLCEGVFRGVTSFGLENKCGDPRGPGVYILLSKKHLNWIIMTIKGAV
From the text: All chemical and biological reagents were purchased from commercial suppliers and used without further purification. The following reagents for solid phase peptide synthesis, Rink Amide RA resin (particle size 200–300 mesh, loading 0.74 mmol/g), 2-chlorotrityl chloride resin, Fmoc-protected amino acids, biotin, 1-[bis(dimethylamino)methylene]-1H-1,2,3-triazolo[4,5-b] pyridinium 3-oxid hexafluorophosphate (HATU), piperidine, diisopropylcarbodiimide (DICI), and trifluoroacetic acid (TFA), were purchased from Iris Biotech GmbH (Marktredwitz, Germany); anhydrous N-hydroxybenzotriazole (HOBt, purity >98%) was purchased from Creosauls; 2,4,6-collidine (2,4,6-trimethylpyridine), HPLC pure acetonitrile, and triisopropylsilane (TIPS) were purchased from Sigma-Aldrich (Poznan, Poland); and N,N-diisopropylethylamie (DIPEA) was purchased from VWR International (Gdansk, Poland). Solvents such as N,N-dimethylformamide (DMF), dichloromethane (DCM), methanol (MeOH), diethyl ether (Et2O), and acetic acid (AcOH) were purchased from Avantor (Gliwice, Poland). Cy5 was purchased from Lumiprobe GmbH (Hannover, Germany). Human neutrophil elastase was purchased from BioCentrum (Kraków, Poland) and proteinase 3 from Athens Research Technology (Athens, USA). Anti-GrA antibody (rabbit, monoclonal, ab209205) was obtained from Abcam (Cambridge, Great Britain). All cell lines were purchased from DSMZ (Braunschweig, Germany) or ATCC (Manassas, USA). All kinetic assays were performed using a Spectra Max Gemini XPS spectrofluorometer (Molecular Devices) on 96-well Corning plates. The parameters of the process were as follows: 37 °C; excitation/emission wavelength, 355/460 nm; cutoff, 455 nm; varying concentrations of substrates and enzyme. All measurements were performed in duplicate, and the data represent the average of these repetitions

GrK = biological target: T2, GrK (Homo sapiens, UniProt P49863); experiment: GrA substrate selectivity testing on GrK; assay type: biochemical; conditions: 488 nM GrK
T2 construct: made in house; host or cells: Pichia pastoris
T2 sequence (P49863 27-264): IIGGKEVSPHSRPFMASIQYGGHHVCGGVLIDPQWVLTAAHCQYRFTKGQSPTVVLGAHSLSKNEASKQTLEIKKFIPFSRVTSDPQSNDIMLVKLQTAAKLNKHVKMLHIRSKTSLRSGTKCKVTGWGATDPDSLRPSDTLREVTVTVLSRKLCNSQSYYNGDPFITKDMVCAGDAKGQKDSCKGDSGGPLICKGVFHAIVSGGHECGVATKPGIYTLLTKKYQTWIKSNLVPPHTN
From the text: (§1) Since GrA and GrK are the most structurally similar Grs, they may recognize and hydrolyze the same natural and synthetic substrates. Therefore, we tested whether our new GrA substrates are also recognized by GrK or GrB (Figure 3A). For this experiment, we screened substrates SK8 to SK28 and a GrKref substrate (Ac-Tyr-Arg-Phe-Lys-ACC) or GrBref substrate (Ac-Ile-Glu-Pro-Asp-ACC) at the same concentration using a plate reader, and we monitored the increase in fluorescence over time. The linear portions of the diagram were analyzed, and as we expected, the majority of the substrates were well recognized by GrK, even better than their recognition by GrA. […] Based on that, we concluded that Tic-Gly-Oic-Arg is a leading sequence for a specific potent inhibitor and ABP for GrA.
(§2) Figure 3 (A) GrA substrate selectivity testing on GrK and GrB. Substrates SK8–SK28 and the reference GrK and GrB substrates were placed in a 96-well plate at a concentration of 200 μM and treated with GrK or GrB. […] Data present the average of 2 replicates as adjusted RFU/s.
(§3) Figure S2. Selectivity of SK15 substrate toward selected serine proteases (GrA, GrB, GrM, GrK,
(§4) PR3, and hNE). The reference substrates were as follows: Ac-Ile-Gly-Pro-Arg-ACC for GrA, Ac -Tyr-
Arg-Phe-Lys-ACC for GrK, Ac-Ile-Glu-Pro-Asp-ACC for GrB, Ac-Lys-Val-Pro-Leu-ACC for GrM, […]

[2] = system: human neutrophil elastase (hNE); experiment: Selectivity of SK15 substrate toward hNE; assay type: biochemical; conditions: Figure S2: substrate 67 µM, 3.3 nM hNE
From the text: as §1, §3, §4
(§5) Arg-Phe-Lys-ACC for GrK, Ac-Ile-Glu-Pro-Asp-ACC for GrB, Ac-Lys-Val-Pro-Leu-ACC for GrM,
(§6) Ac-Glu(O-Bzl)-Lys(Ac)-Hyp(Bzl)-Nva-ACC for PR3 and Ac-Arg(NO)2-Glu(Bzl)-Oic-Abu-ACC for hNE.
(§7) Substrates were placed in a 96-well plate at a concentration of 67 µM and treated with optimal
(§8) and emission wavelengths. Data present the average of 2 replicates as adjusted RFU/s.
(§9) Figure S3. Detection of active GrA in NK92 cells. […]

granzyme M (GrM) = experiment: Selectivity of SK15 substrate toward GrM; assay type: biochemical, human; conditions: Figure S2: substrate 67 µM, 74 nM GrM
From the text: as §1, §3, §4, §5, §6, §7, §8, §9

proteinase 3 (PR3) = experiment: Selectivity of SK15 substrate toward PR3; assay type: biochemical; conditions: Figure S2: substrate 67 µM, 3.4 nM PR3
From the text: as §1, §3, §4, §5, §6, §7, §8, §9

GrA [3] = experiment: Screening of individual substrates SK7–SK28 with GrA; assay type: biochemical, human; conditions: Figure 2A: substrate 1 μM, 89 nM enzyme (method b64: 67 μM, 583 nM GrA); adjusted RFU/s, average of 2 replicates
From the text: Data present the average of 2 replicates as adjusted RFU/s. (B) Comparison of SK7 (blue) and SK15 (red) structures.

GrB = biological target: T3, GrB (Homo sapiens, UniProt P10144); experiment: GrA substrate selectivity testing on GrB; assay type: biochemical; conditions: substrate 200 μM (Fig 3A) or 67 μM, 18 nM GrB
T3 construct: made in house; host or cells: Pichia pastoris
T3 sequence (P10144 21-247): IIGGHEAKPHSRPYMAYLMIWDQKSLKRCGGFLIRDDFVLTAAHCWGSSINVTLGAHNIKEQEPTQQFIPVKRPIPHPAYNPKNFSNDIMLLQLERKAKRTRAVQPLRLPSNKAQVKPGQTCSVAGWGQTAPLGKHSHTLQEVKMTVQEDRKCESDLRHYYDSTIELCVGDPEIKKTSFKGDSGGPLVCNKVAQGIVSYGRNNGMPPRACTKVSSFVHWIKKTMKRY
From the text: as §1, §2, §3, §4, §5, §6, §7, §8
Figure S3. Detection of active GrA in NK92 cells.
(also on this page, place not known: S K15 hNE) . Ac-Tyr- -Arg(NO)2-Glu(Bzl)-Oic-Abu-ACC ( 89 G rA cell s. reference reference SK15 reference SK15 reference SK15 reference SK15 reference SK15 0 50 100 substrate turnover, %RFU/s PR3GrMGrBGrK hNEGrA SK15 selectivity) […]

[4] = GrA 93 nM, assay buffer pH 7.5, 37 °C, ACC fluorescence 355/460 nm

Question: With “Ac-[Tic]G[Oic]R-{ACC} (SMILES CC(=O)N1Cc2ccccc2C[C@H]1C(=O)NCC(=O)N1[C@H](C(=O)N[C@@H](CCCNC(=N)N)C(=O)Nc2ccc3c(CC(N)=O)cc(=O)oc3c2)C[C@@H]2CCCC[C@@H]21) [SK15]” as the substance, how does the kcat (GrA [1]; [4]) read?
Answer: 0.27 ± 0.0029 s⁻¹

Question: And the kcat/KM (GrA [1]; [4])?
Answer: 3100 M^–1 s^–1 and 3100 ± 80 s^–1 M^–1

Question: What about the Km (GrA [1]; GrA 93 nM, substrate 1000–7.81 μM, 50 mM Tris, 100 mM NaCl, 5 mM CaCl2, 0.01% Tween-20, pH 7.5, 37 °C, ACC fluorescence 355/460 nm, Michaelis–Menten nonlinear regression, duplicate) of the same substance?
Answer: 87.4 ± 1.3 µM

Question: What about the “GrA activity against the substrate relative to the reference sequence SK7” value (GrA [1]; ratio to SK7) of the same substance?
Answer: approximately 40 fold

Question: And the “hydrolysis by GrK” value (GrK; Figure 3A and S2, substrate 200 μM (Fig 3A) or 67 μM (Fig S2), adjusted RFU/s, 2 replicates)?
Answer: 20%

Question: And the “hydrolysis by GrK (in words)” value (GrK; substrate 200 μM (Fig 3A) or 67 μM)?
Answer: barely hydrolyzed

Question: What about the “recognition by hNE (in words)” value [2] of the same substance?
Answer: not recognized

Question: And the “recognition by GrM (in words)” value (granzyme M (GrM))?
Answer: not recognized

Question: What about the “recognition by PR3 (in words)” value (proteinase 3 (PR3)) of the same substance?
Answer: not recognized

Question: And the “hydrolysis of individual substrate by GrA (in words)” value (GrA [3])?
Answer: most active substrate

Question: And the “hydrolysis by GrB (in words)” value (GrB)?
Answer: inactive; also recorded: not recognized
